ChEMBL document CHEMBL1153808, “Antimalarial benzylisoquinoline alkaloid from the rainforest tree Doryphora sassafras” (J Nat Prod, 2009)
pIC50: −log10 of the molar value.

Experiments:
[1] = test system: HEK293; assay: Cytotoxicity against human HEK293 cells at 120 uM after 72 hrs by Alamar blue assay; format: cell-based; settings: hek293, 72 h
[2] = in vitro; settings: human, HEK293 cells
Description: Selectivity index, ratio of antimicrobial activity against Plasmodium falciparum Dd2 over cytotoxicity against human HEK293 cells

[3] = in vitro; settings: human, HEK293 cells; remark: listed apart in the source
Description: Selectivity index, ratio of antimicrobial activity against Plasmodium falciparum 3D7 over cytotoxicity against human HEK293 cells

[4] = test system: Plasmodium falciparum; assay: microbe, parasite or virus in culture; settings: 3D7, 72 h
Description: Antimalarial activity against chloroquine-sensitive Plasmodium falciparum 3D7 after 72 hrs by DAPI staining method

[5] = test system: Plasmodium falciparum; assay: microbe, parasite or virus in culture; settings: Dd2, 72 h
Description: Antimalarial activity against chloroquine-resistant Plasmodium falciparum Dd2 after 72 hrs by DAPI staining method

[6] = test system: HEK293; assay: Cytotoxicity against human HEK293 cells at 2 uM after 72 hrs by Alamar blue assay; format: cell-based; settings: hek293, 72 h

| Structure (SMILES) | Activity [1] [%] | selectivity ratio [2] | selectivity ratio [3] | pIC50 [4] | pIC50 [5] | Activity [6] [%] |
| --- | --- | --- | --- | --- | --- | --- |
| C[n+]1ccc2cc3c(cc2c1Cc1ccc(O)cc1)OCO3.O=C([O-])C(F)(F)F | 0 | > 27 | > 40 | 5.36 | 5.52 | – |
| COc1ccc2c(c1O)-c1c(OC)c(OC)cc3c1[C@H](C2)NCC3.O=C(O)C(F)(F)F | 0 | > 6 | > 6 | 4.72 | 4.77 | – |
| C[C@@H]1CC[C@H]2[C@@H](C)C(=O)O[C@@H]3O[C@@]4(C)CC[C@@H]1[C@]32OO4 [ARTEMISININ] | – | > 100 | > 100 | 7.68 | 7.68 | 0 |
| CCN(CC)CCCC(C)Nc1ccnc2cc(Cl)ccc12 (stereo unspecified) [CHLOROQUINE] | – | – | – | – | – | 0 |
